biological target: T1, human IL-17AA (Homo sapiens, UniProt Q16552); assay: IL-8 release assay in human epithelial keratinocytes adult (HEKa); format: cell-based; details: HEKa cells, 3 ng/mL HEK-human IL-17AA + 10 ng/mL human TNFalpha; read-out: Rel EC50 IL-8 release assay
T1 construct: host or cells: HEK (human embryonic kidney) cells
T1 sequence (Q16552 24-155): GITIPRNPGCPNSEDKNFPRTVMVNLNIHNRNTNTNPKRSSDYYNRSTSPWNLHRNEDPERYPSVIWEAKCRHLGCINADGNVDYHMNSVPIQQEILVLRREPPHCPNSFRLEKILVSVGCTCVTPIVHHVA
Summary of the method: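 Adult human epidermal keratinocytes stimulated 68-72 h at 37 °C with 3 ng/mL HEK-derived human IL-17AA plus 10 ng/mL TNF-alpha (final) in the presence of compound; TNF-alpha alone defines 100% inhibition. Secreted IL-8 measured by HTRF as percent of controls; relative IC50/Emax from four-parameter fit (r^2>0.9), cytotoxicity by PrestoBlue.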

EC50	Structure (SMILES)
< 100 nM	Cc1n[nH]c(C)c1-c1ccc(NC(=O)[C@@H](NC(=O)c2cnnn2C(C)C)C(C2CCC2)C2CCC2)cc1 [Example 273, N-[(1S)-1-[di(cyclobutyl)methyl]-2-[4-(3,5-dimethyl-1H-pyrazol-4-yl)anilino]-2-oxo-ethyl]-3-isopropyl-triazole-4-carboxamide]
< 100 nM	Cc1nocc1C(=O)N[C@H](C(=O)Nc1ccc(-c2c(C)n[nH]c2C)cc1)C(C1CCC1)C1CCC1 [Example 274, N-[(1S)-1-[di(cyclobutyl)methyl]-2-[4-(3,5-dimethyl-1H-pyrazol-4-yl)anilino]-2-oxo-ethyl]-3-methyl-isoxazole-4-carboxamide]
> 1000 nM	Cc1n[nH]c(C)c1-c1ccc(NC(=O)[C@@H](NC(=O)c2nccn2C)C2CCCCC2)cc1 [Example 275, N-[(1S)-1-cyclohexyl-2-[4-(3,5-dimethyl-1H-pyrazol-4-yl)anilino]-2-oxo-ethyl]-1-methyl-imidazole-2-carboxamide]
< 100 nM	CCc1nocc1C(=O)N[C@H](C(=O)Nc1ccc(-c2c(C)n[nH]c2C)cc1)C1CCCCC1 [Example 276, N-[(1S)-1-cyclohexyl-2-[4-(3,5-dimethyl-1H-pyrazol-4-yl)anilino]-2-oxo-ethyl]-3-ethyl-isoxazole-4-carboxamide]
< 100 nM	Cc1n[nH]c(C)c1-c1ccc(NC(=O)[C@@H](NC(=O)c2conc2C(C)C)C2CCCCC2)cc1 [Example 277, N-[(1S)-1-cyclohexyl-2-[4-(3,5-dimethyl-1H-pyrazol-4-yl)anilino]-2-oxo-ethyl]-3-isopropyl-isoxazole-4-carboxamide]
100 to 1000 nM	Cc1n[nH]c(C)c1-c1ccc(NC(=O)[C@@H](NC(=O)c2ccnn2C)[C@@H]2CCc3c(F)cc(Br)cc32)cc1 [Example 278, N-[(1S)-1-[(1R)-6-bromo-4-fluoro-indan-1-yl]-2-[4 (3,5-dimethyl-1H-pyrazol-4-yl)anilino]-2-oxo-ethyl]-2-methyl-pyrazole-3-carboxamide]
< 100 nM	Cc1n[nH]c(C)c1-c1ccc(NC(=O)[C@@H](NC(=O)c2ccnn2C(C)C)[C@H]2CCOc3c(F)cc(F)cc32)cc1 [Example 279, N-[(1S)-1-[(4S)-6,8-difluorochroman-4-yl]-2-[4-(3,5-dimethyl-1H-pyrazol-4-yl)anilino]-2-oxo-ethyl]-2-isopropyl-pyrazole-3-carboxamide]
100 to 1000 nM	Cc1n[nH]c(C)c1-c1ccc(NC(=O)[C@H](CC(C)(C)C)NC(=O)c2ccnn2C)cc1 [Example 281]
100 to 1000 nM	Cc1n[nH]c(C)c1-c1ccc(NC(=O)C(NC(=O)c2ccnn2C(C)C)C(C)C2CC2)cc1 (stereo not shown) [Example 282]
100 to 1000 nM	Cc1n[nH]c(C)c1-c1ccc(NC(=O)[C@@H](NC(=O)c2ccnn2C(C)C)[C@@H](C)C2CC2)cc1 [Example 283, N-[(1S,2S)-2-cyclopropyl-1-[4-(3,5-dimethyl-1H-pyrazol-4-yl)phenyl]carbamoyl] propyl-2-isopropyl-pyrazole-3-carboxamide]
100 to 1000 nM	Cc1n[nH]c(C)c1-c1ccc(NC(=O)[C@@H](NC(=O)c2csc3cnccc23)C2CCCCC2)cc1 [Example 286, N-[(1S)-1-cyclohexyl-2-[4-(3,5-dimethyl-1H-pyrazol-4-yl)anilino]-2-oxo-ethyl]thieno[2,3-c]pyridine-3-carboxamide]
< 100 nM	Cc1n[nH]c(C)c1-c1ccc(NC(=O)[C@@H](NC(=O)c2ccnn2C(C)C)[C@H]2CCOc3c(F)cccc32)cc1 [Example 287, N-[(1S)-2-[4-(3,5-dimethyl-1H-pyrazol-4-yl)anilino]-1-[(4S)-8-fluorochroman-4-yl]-2-oxo-ethyl]-2-isopropyl-pyrazole-3-carboxamide]
< 100 nM	Cc1n[nH]c(C)c1-c1ccc(NC(=O)[C@@H](NC(=O)c2ccnn2C(C)C)[C@H]2CCOc3cc(F)ccc32)cc1 [Example 288, N-[(1S)-2-[4-(3,5-dimethyl-1H-pyrazol-4-yl)anilino]-1-[(4S)-7-fluorochroman-4-yl]-2-oxo-ethyl]-2-isopropyl-pyrazole-3-carboxamide]
< 100 nM	Cc1n[nH]c(C)c1-c1ccc(NC(=O)[C@@H](NC(=O)c2ccnn2C(C)C)[C@H]2CCOc3ccc(F)cc32)cc1 [Example 289, N-[(1S)-2-[4-(3,5-dimethyl-1H-pyrazol-4-N yl)anilino]-1-[(4S)-6-fluorochroman-4-yl]-2-oxo-ethyl]-2-isopropyl-pyrazole-3-carboxamide]
< 100 nM	CCc1nocc1C(=O)N[C@H](C(=O)Nc1ccc(-c2c(C)n[nH]c2C)cc1)C(C1CC1)C1CC1 [Example 290, N-[(1S)-1-(dicyclopropylmethyl)-2-[4-(3,5-dimethyl-1H-pyrazol-4-yl)anilino]-2-oxo-ethyl]-3-ethyl-isoxazole-4-carboxamide]
< 100 nM	Cc1n[nH]c(C)c1-c1ccc(NC(=O)[C@@H](NC(=O)c2conc2C(C)C)C(C2CC2)C2CC2)cc1 [Example 291, N-[(1S)-1-(dicyclopropylmethyl)-2-[4-(3,5-dimethyl-1H-pyrazol-4-yl)anilino]-2-oxo-ethyl]-3-isopropyl-isoxazole-4-carboxamide]

EC50	Structure (SMILES)
< 100 nM	Cc1n[nH]c(C)c1-c1ccc(NC(=O)[C@@H](NC(=O)c2cnnn2C(C)C)C(C2CC2)C2CC2)cc1 [Example 292, N-[(1S)-1-(dicyclopropylmethyl)-2-[4-(3,5-dimethyl-1H-pyrazol-4-yl)anilino]-2-oxo-ethyl]-3-isopropyl-triazole-4-carboxamide]
100 to 1000 nM	Cc1n[nH]c(C)c1-c1ccc(NC(=O)[C@@H](NC(=O)c2cnc3ccccn23)C2CCCCC2)cc1 [Example 293, N-[(1S)-1-cyclohexyl-2-[4-(3,5-dimethyl-1H-pyrazol-4-yl)anilino]-2-oxo-ethyl]imidazo[1,2-a]pyridine-3-carboxamide]
100 to 1000 nM	Cc1n[nH]c(C)c1-c1ccc(NC(=O)C(NC(=O)c2ccnn2C(C)C)C(C2CC(F)(F)C2)C2CC(F)(F)C2)cc1 (stereo not shown) [Example 295, N-[1-[bis(3,3-difluorocyclobutyl)methyl]-2-[4-(3,5-dimethyl-1H-pyrazol-4-yl)anilino]-2-oxo-ethyl]-2-isopropyl-pyrazole-3-carboxamide]
> 1000 nM	Cc1n[nH]c(C)c1-c1ccc(NC(=O)[C@@H](Cc2ccccc2)NC(=O)c2ccnn2C)cc1 [Example 297, N-[(1R)-1-benzyl-2-[4-(3,5-dimethyl-1H-pyrazol-4-yl)anilino]-2-oxo-ethyl]-2-methyl-pyrazole-3-carboxamide]
> 1000 nM	Cc1n[nH]c(C)c1-c1ccc(NC(=O)[C@H](CC(C)C)NC(=O)c2ccnn2C)cc1 [Example 298]
> 1000 nM	Cn1cncc1-c1ccc(NC(=O)[C@H](Cc2cc(C#N)ccc2Cl)NC(=O)OC(C)(C)C)cc1 [Example 307, tert-butyl N-[(1S)-1-[(2-chloro-5-cyano-phenyl)methyl]-2-[4-(3-methylimidazol-4-yl)anilino]-2-oxo-ethyl]carbamate]
100 to 1000 nM	Cc1ncn(C)c1-c1ccc(NC(=O)C(NC(=O)c2ccnn2C)C(C2CC2)C2CC2)cc1 (stereo not shown) [Example 332, N-[1-(dicyclopropylmethyl)-2-[4-(3,5-dimethylimidazol-4-yl)anilino]-2-oxo-ethyl]-2-methyl-pyrazole-3-carboxamide]
> 1000 nM	Cc1ncn(C)c1-c1ccc(NC(=O)[C@@H](NC(=O)c2ccnn2C)C2CCCC2)cc1 [Example 335, N-[(1S)-1-cyclopentyl-2-[4-(3,5-dimethylimidazol-4-yl)anilino]-2-oxo-ethyl]-2-methyl-pyrazole-3-carboxamide]
100 to 1000 nM	Cc1ncn(C)c1-c1ccc(NC(=O)[C@@H](NC(=O)c2ccnn2C)C2CCCCCC2)cc1 [Example 336, N-[(1S)-1-cycloheptyl-2-[4-(3,5-dimethylimidazol-4-yl)anilino]-2-oxo-ethyl]-2-methyl-pyrazole-3-carboxamide]
100 to 1000 nM	Cc1ncn(C)c1-c1ccc(NC(=O)[C@@H](NC(=O)c2ccnn2C)C2CCCCC2)cc1 [Example 337, N-[(1S)-1-cyclohexyl-2-[4-(3,5-dimethylimidazol-4-yl)anilino]-2-oxo-ethyl]-2-methyl-pyrazole-3-carboxamide]
100 to 1000 nM	Cc1ncn(C)c1-c1ccc(NC(=O)[C@@H](NC(=O)c2ccnn2C)C(c2ccccc2)c2ccccc2)cc1 [Example 338, N-[(1S)-1-benzhydryl-2-[4-(3,5-dimethylimidazol-4-yl)anilino]-2-oxo-ethyl]-2-methyl-pyrazole-3-carboxamide]
> 1000 nM	Cn1cncc1-c1ccc(NC(=O)[C@@H](NC(=O)c2ccnn2C)[C@@H]2CCc3ccc(Br)cc32)cc1 [Example 340, N-[(1S)-1-[(1R)-6-bromoindan-1-yl]-2-[4-(3-methylimidazol-4-yl)anilino]-2-oxo-ethyl]-2-methyl-pyrazole-3-carboxamide]
100 to 1000 nM	Cn1cncc1-c1ccc(NC(=O)[C@@H](NC(=O)c2ccnn2C)[C@H]2CCc3ccc(Br)cc32)cc1 [Example 341, N-[(1S)-1-[(1S)-6-bromoindan-1-yl]-2-[4-(3-methylimidazol-4-yl)anilino]-2-oxo-ethyl]-2-methyl-pyrazole-3-carboxamide]
> 1000 nM	Cn1cncc1-c1ccc(NC(=O)[C@H](Cc2cc(C#N)ccc2Cl)NC(=O)c2ccnn2C)cc1 [Example 342, N-[(1S)-1-[(2-chloro-5-cyano-phenyl)methyl]-2-[4-(3-methylimidazol-4-yl)anilino]-2-oxo-ethyl]-2-methyl-pyrazole-3-carboxamide]
> 1000 nM	Cn1cncc1-c1ccc(NC(=O)[C@@H](NC(=O)c2ccnn2C)C2CCCCC2)cc1 [Example 343, N-[(1S)-1-cyclohexyl-2-[4-(3-methylimidazol-4-yl)anilino]-2-oxo-ethyl]-2-methyl-pyrazole-3-carboxamide]

— US11377425B1, “Small molecule modulators of IL-17” (LEO Pharma A/S, priority 2018, dated 2022)
